Test results: patent US8841325B2, “Immunomodulatory compounds for the restoration of vitamin D sensitivity in vitamin D resistant tumor cells” (Celgene Corporation, priority 2009, dated 2014)
“Also recorded” adds a separate entry of the source.

Legend:
Format in all cases: cell-based
[1] = system: MDA-MB-231 cells; experiment: Cell viability by neutral red assay, MDA-MB-231; settings: for effect on cell viability: up to 6 days
Experimental: Cells were seeded in 24 wells plates at a density of 10^4 cells per well and allowed to adhere for 24 hours. […] The drug was renewed every 2 days. Cell viability was then determined by neutral red assay, measuring absorbance at 550 nm.
After 6 days treatment, cells were seeded into 24 well plates at a density of 1×10^4 cells/wells. After 24 h, cells were treated with reagents or vehicle for up to six days. At the end of the incubation period, medium was removed and cells were incubated with neutral red solution (40 μg/ml in phenol red and serum free DMEM) for 2 h at 37° C. After removal of the neutral red solution, wells were rinsed once with 1 ml 4% formal saline containing 0.5% CaCl2. Plates were inverted on paper towel to drain and 200 μl of elution fluid (1% acetic acid in 50% ethanol) was added. Following incubation at room temperature for 30 min with gentle shaking, absorbance at 550 nm was determined
To accomplish this, cells were treated for up to 6 days with different concentrations of a BCL-2 inhibitor, ABT-263 ([…]). Non-treated cells were used as a control. After 6 days of treatment, cell viability was measured by neutral red assay (FIG. 16). In the three cell lines, BCL-2 inhibition leads to cell death. The IC50 is almost equivalent in all cell lines (1 μM+/−0.2 μM).
More particularly, FIG. 16 illustrates the effects of BCL-2 inhibition on MCF-7VD^R and HBL-100 viability. MDA-MB-231, MCF-7/VD^R and HBL-100 cells were treated for up to 6 days with different concentrations of ABT-263 (0.2 up to 20 μM). Non-treated cells were used as a control. After 6 days of treatment, cell viability was measured by neutral red assay. Results are mean of three independent experiments (each made in quadruplicate).

[2] = system: HBL-100 cells; experiment: BCL-2 expression by immunoblotting, HBL-100; settings: 1 μM lenalidomide and 100 nM 1,25-D3 alone or in combination, 6 days, FIG. 15
Experimental: It has been shown in this paper that BCL-2 inhibition of expression seems to be a key event for the restoration of a sensitive vitamin D sensitive phenotype in MDA-MB-231. […] Cells were also treated with 0.1% DMSO as a control. Whole cells extracts were prepared and analysed by immuoblotting BCL-2 antibody. β-actin was used as a loading control.
More particularly, FIG. 15 illustrates the effects of co-treatment lenalidomide/1, 25-D3 on BCL-2 expression in MCF-7VDR and HBL-100 cells. MCF-7/VDR and HBL-100 cells were treated for up to 6 days with 1 μM lenalidomide and 100 nM 1, 25-D3 alone or in combination. Cells were also treated with 0.1% DMSO a control. Whole proteins were extracted and probes for BCL-2. β-actin was used as a loading control. Representative blots for the three experiments are shown.

[3] = system: MDA-MB-231 cells; experiment: Apoptosis protein array and Western blot (p53, p21, p27, claspin, BCL-2); settings: for expression of the anti-apoptotic protein Bcl-2: 1 μM lenalidomide or 100 nM 1,25-D3 alone
Experimental: Cells were lysed in RIPA buffer containing 1% NP40, 0.5% sodium deoxycholate, 0.1% SDS and PBS and lysates containing 300 μg protein were probed with an R and D apoptosis protein array kit according to the manufacturers instructions (R&D catalogue number ARY009). Spots were visualised using the enhanced chemiluminescence Western blotting detection system (ECL, Amersham, N.J., USA). Densitometric analysis was performed using Adobe Photoshop CS2.
To determine the pathways and proteins involved in the increased apoptosis seen with the lenalidomide/1, 25-D3 combination treatment, whole proteins were extracted from cells taken from the different treatments and were used for probing with an apoptosis protein array, according to the manufacturer. FIG. 9 illustrates the effects. […] Cells were also treated with 0.1% DMSO as a control. Cells were lysed with RIPA buffer as described in the materials and methods, and 300 μg of protein from each of the samples was used for probing with the R& D apoptosis array according to the manufacturers instructions. Results are representative of 2 separate arrays performed. The protein array gives a semi quantitative analysis of changes in the key apoptosis and checkpoint pathway proteins. […] All these proteins are well known to be major pro-apoptotic or checkpoint regulatory proteins. […] All theses results were confirmed by Western blot (FIG. 10 (a)) and densitometry plots of the array and western blot bands/dots were carried out to quantitate the changed expression of these proteins (FIG. 10 (b)). Therefore, the increase in pro-apoptotic proteins coupled with a decrease in Bcl-2 may be responsible for the increased apoptosis seen with the combination treatment.
More particularly, FIG. 10 illustrates the effects of co-treatment lenalidomide/1, 25-D3 on p53 activation and p21, p27, claspin, and BCL-2 protein expression in MDA-MB-231 cells. […] Cells were also treated with 0.1% DMSO as a control. Whole proteins were extracted and probed for p53 (serine 15 and serine 392), p21, p27, claspin, and BCL-2, with b-actin as a house-keeping protein.

[4] = system: MDA-MB-231 cells; experiment: Annexin V/PI staining analysed by FACS; settings: for necrosis and apoptosis activation (propidium iodide and Annexin V staining): 1 μM lenalidomide or 100 nM 1,25-D3 alone; for necrosis and apoptosis activation (propidium iodide and Annexin V staining) / apoptosis assessed by Annexin V or PI staining: up to 6 days; for apoptosis assessed by Annexin V or PI staining: single agent: 1 nM compound or 100 nM 1,25 D3 alone
Experimental: Cells were seeded into 6 well plates at a density of 2×10^6 cells/well. Cells were treated with 1 μl/mL DMSO (control) or 1 nM 1-oxo-2-(2,6-dioxopiperidin-3-yl)-4-aminoisoindoline and 100 nM 1,25 D3, each alone or in combination for up to 6 days. Medium was removed by EDTA treatment, and cells were washed twice with ice-cold PBS. Cells were then resuspended into the buffer at a dilution of 1×10^6 cells/mL. 10^5 cells were then stained with Annexin V and Propidium Iodide (“PI”). Staining was analyzed by FACS. Results were expressed as the percentage of control Annexin V or PI staining where the control was cells treated with DMSO only. Results were from triplicate wells.
To assess the nature of MDA-MB-231 cell death (apoptosis or necrosis) induced by co-treatment of lenalidomide/1, 25-D3 cells were seeded into 25 cm2 flasks at a density of 2×10^6 cells/flask. […] Medium was removed by EDTA treatment and cells were washed twice with ice-cold PBS. Cells were then resuspended into the buffer at a dilution of 1×10^6 cells/ml. 10^5 cells were then stained with Annexin V and Iodure Propidium. Staining was analysed by FACS.
Cells were also treated with 0.1% DMSO as a control. […] Cells treated with 0.1% DMSO were used as a control (day 0). Cell lysates were probed for cleaved-PARP(C-PARP) and total PARP (T-PARP). Data shown are representative of three identical experiments.

[5] = 1 μM lenalidomide co-treatment with 100 nM 1,25-D3, up to 6 days

SMILES	effect on cell viability ([1]; 100 nM 1,25-D3 or 1 μM IMiD alone)	sensitivity of cell viability to vitamin D agent treatment ([1]; 1,25 D3 0-100 nM, 7 days, FIG. 1)	effects on BCL-2 expression [2]	expression of the anti-apoptotic protein Bcl-2 ([3]; up to 6 days)	necrosis and apoptosis activation (propidium iodide and Annexin V staining) ([4]; FIG. 8B)	apoptosis assessed by Annexin V or PI staining ([4]; FIG. 5)	effect on cell viability ([1]; single agent, Thalidomide 0.01-100 μM, CC-4047 and lenalidomide 0.001-10 μM, FIG. 6A)	BCL-2 expression [3, 5]	p21, p27 and claspin expression [3, 5]	p53 activation (phosphorylation of serine 15 and serine 392) [3, 5]	p53 activation (phosphorylation of serine 15 and serine 392) ([3]; 1 μM lenalidomide only, up to 6 days)	proapoptotic protein claspin ([3]; combination of lenalidomide and 1,25D3 versus either agent alone)	proapoptotic proteins P21, P27 and P53S392 ([3]; lenalidomide in combination with vitamin D)	proapoptotic proteins P21, P27 and P53S392 ([3]; lenalidomide on its own)	apoptosis assessed by Annexin V and PI staining ([4]; 1 nM compound in combination with 100 nM 1,25 D3, up to 6 days, FIG. 5)	Annexin V staining ([4]; 1 μM lenalidomide co-treatment with 100 nM 1,25-D3, up to 6 days, FIG. 8B)
C=C1/C(=C\C=C2/CCC[C@]3(C)[C@@H]([C@H](C)CCCC(C)(C)O)CC[C@@H]23)C[C@@H](O)C[C@@H]1O [1,25-D3, 1α,25-dihydroxyvitamin D3]	no effect	resistant	no effects	does not affect	no effects	no significant increase in apoptosis										
Nc1cccc2c1CN(C1CCC(=O)NC1=O)C2=O (centres unmarked) [Lenalidomide, 1-oxo-2-(2,6-dioxopiperidin-3-yl)-4-aminoisoindoline]			no effects	does not affect	no effects	no significant increase in apoptosis	do not Affect	inhibits BCL-2 expression; also recorded: abolished by the combination	induces activation	induces p53 activation	induces p53 activation	upregulated by the combination, but not with either agent alone	upregulated	upregulated	significant increase in apoptosis	Annexin V staining was observed
